Assay results reported in PubChem BioAssay (NCI).
Several values for one entry are separate records, joined by “and”; a condition that tells them apart may be missing. Equal entries are not always repeated.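 Results reflect a 48-hour exposure of cells in 96-well plates to compound at five concentrations. GI50: concentration for 50% inhibition of growth. TGI: concentration producing complete growth inhibition.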

These compounds were tested on MALME-3M melanoma (assay: DTP human tumour cell line panel, 48 h).

| Compound | GI50 [µM] | TGI [µM] |
| --- | --- | --- |
| CN(C)c1ccc(C(O)C2=CC(=O)c3ccccc3C2=O)cc1 (stereo not drawn) | 24.2 | 56.7 |
| Clc1ccc(CN2CCCN(Cc3ccc(Cl)cc3)C2c2cc3ccccc3c3ccccc23)cc1 | – | 37.6 |
| COc1ccc(C2NC(=S)NC3=C2CCOc2c3ccc3ccccc23)cc1 (stereo not drawn) | 49.8 | > 100 |
| Nn1c(-c2ccc(Cl)cc2)nc2c(-c3ccc(Cl)cc3)nc3ccc(Cl)cc3c2c1=O | 21.3 | 65.4 |
| O=C(O)c1ccccc1NCn1c(=S)sc2ccccc21 | – | > 100 |
| Cc1cc(NN=C(c2ccc(O)cc2)c2ccc(O)cc2)c([N+](=O)[O-])cc1[N+](=O)[O-] | 9.31 | 23.2 |
| O=C(O)CCCCC1CCSS1 (stereo not drawn) | – | > 100 |
| O=c1cccc(Cl)[nH]1 | – | > 100 |
| COc1ccc(C2=Nn3c(nnc3-n3nc(C)cc3C)SC2)cc1 | 0.0407 | 70.5 |
| COc1cccc(-c2nc3sccn3c2-c2ccnc(NCCCNS(=O)(=O)c3ccccc3)c2)c1 | 2.59 | 9.73 |

These compounds were tested on BT-549 breast (assay: DTP human tumour cell line panel, 48 h).

| Compound | GI50 [µM] | TGI [µM] |
| --- | --- | --- |
| CN(C)c1ccc(C(O)C2=CC(=O)c3ccccc3C2=O)cc1 (stereo not drawn) | 2.58 | 6.25 |
| Clc1ccc(CN2CCCN(Cc3ccc(Cl)cc3)C2c2cc3ccccc3c3ccccc23)cc1 | – | > 100 |
| COc1ccc(C2NC(=S)NC3=C2CCOc2c3ccc3ccccc23)cc1 (stereo not drawn) | 68.8 | > 100 |
| COc1ccc(/C=C/C(=O)c2cc3c(N)c(C(=O)Nc4ccc(OC)cc4)sc3nc2C)cc1 | 0.571 | > 50 |
| Nn1c(-c2ccc(Cl)cc2)nc2c(-c3ccc(Cl)cc3)nc3ccc(Cl)cc3c2c1=O | 14.5 | 60.2 |
| COc1ccc(-c2csc(Nc3cccc(-c4csc(C)n4)c3)n2)cc1 | 8.2 | 40.3 |
| O=C(O)c1ccccc1NCn1c(=S)sc2ccccc21 | – | > 100 |
| CCOC1Oc2ccc(C)cc2C(=O)/C1=C\Nc1ccc(S(N)(=O)=O)cc1 (stereo not drawn) | 10.1 | 35.2 |
| Cc1cc(NN=C(c2ccc(O)cc2)c2ccc(O)cc2)c([N+](=O)[O-])cc1[N+](=O)[O-] | 11.4 | 35.5 |
| Nc1ccccc1C#Cc1ccccc1C#Cc1cccs1 | 15.9 | 32.1 |
| O=c1cccc(Cl)[nH]1 | – | > 100 |
| COc1ccc(C2=Nn3c(nnc3-n3nc(C)cc3C)SC2)cc1 | 0.192 | > 100 |
| COc1ccc(C)cc1NC(=S)C#N | – | > 100 |

Each compound was assayed on T-47D breast (assay: DTP human tumour cell line panel, 48 h).

| Compound | TGI | GI50 |
| --- | --- | --- |
| Clc1ccc(CN2CCCN(Cc3ccc(Cl)cc3)C2c2cc3ccccc3c3ccccc23)cc1 | > 100 µM | – |
| COc1ccc(C2NC(=S)NC3=C2CCOc2c3ccc3ccccc23)cc1 (stereo not drawn) | > 100 µM | 8.5 µM |
| COc1ccc(/C=C/C(=O)c2cc3c(N)c(C(=O)Nc4ccc(OC)cc4)sc3nc2C)cc1 | > 50 µM | 0.403 µM |
| Nn1c(-c2ccc(Cl)cc2)nc2c(-c3ccc(Cl)cc3)nc3ccc(Cl)cc3c2c1=O | 67.2 µM | 9.3 µM |
| COc1ccc(-c2csc(Nc3cccc(-c4csc(C)n4)c3)n2)cc1 | > 50 µM | 11.5 µM |
| O=C(O)c1ccccc1NCn1c(=S)sc2ccccc21 | > 100 µM | – |
| CCCCCCCCCCCCCCCC[n+]1ccccc1 | 3.42 µM and 3.91 µM | 0.5 µM and 0.445 µM |
| COc1cc2c3c(n(CCCNCCCNCCCN)c(=O)c2cc1OC)-c1cc2c(cc1C3=O)OCO2 | > 100 µM | > 100 µM |
| O=C(O)CCCCC1CCSS1 (stereo not drawn) | > 100 µM | – |
| O=c1cccc(Cl)[nH]1 | > 100 µM | – |
| COc1ccc(C)cc1NC(=S)C#N | > 100 µM | – |
| COc1cccc(-c2nc3sccn3c2-c2ccnc(NCCCNS(=O)(=O)c3ccccc3)c2)c1 | 6.24 µM | 1.73 µM |

The compounds below were run on SF-295 CNS (assay: DTP human tumour cell line panel, 48 h).

| Compound | GI50 [µM] | TGI [µM] |
| --- | --- | --- |
| CN(C)c1ccc(C(O)C2=CC(=O)c3ccccc3C2=O)cc1 (stereo not drawn) | 25.1 | 93.3 |
| Clc1ccc(CN2CCCN(Cc3ccc(Cl)cc3)C2c2cc3ccccc3c3ccccc23)cc1 | – | > 100 |
| COc1ccc(C2NC(=S)NC3=C2CCOc2c3ccc3ccccc23)cc1 (stereo not drawn) | 19.1 | > 100 |
| COc1ccc(/C=C/C(=O)c2cc3c(N)c(C(=O)Nc4ccc(OC)cc4)sc3nc2C)cc1 | 0.0645 | – |
| Nn1c(-c2ccc(Cl)cc2)nc2c(-c3ccc(Cl)cc3)nc3ccc(Cl)cc3c2c1=O | 13.3 | 34.4 |
| COc1ccc(-c2csc(Nc3cccc(-c4csc(C)n4)c3)n2)cc1 | 0.68 | > 11.5 |
| O=C(O)c1ccccc1NCn1c(=S)sc2ccccc21 | – | > 100 |
| CCCCCCCCCCCCCCCC[n+]1ccccc1 | 0.311 | 1.42 |
| COc1cc2c3c(n(CCCNCCCNCCCN)c(=O)c2cc1OC)-c1cc2c(cc1C3=O)OCO2 | 40.6 | > 100 |
| CCOC1Oc2ccc(C)cc2C(=O)/C1=C\Nc1ccc(S(N)(=O)=O)cc1 (stereo not drawn) | 12.6 | 35.7 |
| Cc1cc(NN=C(c2ccc(O)cc2)c2ccc(O)cc2)c([N+](=O)[O-])cc1[N+](=O)[O-] | 4.91 | 22.2 |
| Nc1ccccc1C#Cc1ccccc1C#Cc1cccs1 | 16.1 | 37.3 |
| O=C(O)CCCCC1CCSS1 (stereo not drawn) | – | > 100 |
| O=c1cccc(Cl)[nH]1 | – | > 100 |
| COc1ccc(C)cc1NC(=S)C#N | – | > 100 |
| COc1cccc(-c2nc3sccn3c2-c2ccnc(NCCCNS(=O)(=O)c3ccccc3)c2)c1 | 3.18 | 20.8 |

These compounds were tested on HOP-62 NSCLC (assay: DTP human tumour cell line panel, 48 h).

| Compound | GI50 | TGI |
| --- | --- | --- |
| CN(C)c1ccc(C(O)C2=CC(=O)c3ccccc3C2=O)cc1 (stereo not drawn) | 23.1 µM | 64.7 µM |
| Clc1ccc(CN2CCCN(Cc3ccc(Cl)cc3)C2c2cc3ccccc3c3ccccc23)cc1 | – | > 100 µM |
| COc1ccc(C2NC(=S)NC3=C2CCOc2c3ccc3ccccc23)cc1 (stereo not drawn) | > 100 µM | > 100 µM |
| COc1ccc(/C=C/C(=O)c2cc3c(N)c(C(=O)Nc4ccc(OC)cc4)sc3nc2C)cc1 | 0.214 µM | > 50 µM |
| Nn1c(-c2ccc(Cl)cc2)nc2c(-c3ccc(Cl)cc3)nc3ccc(Cl)cc3c2c1=O | 22.4 µM | 57.7 µM |
| COc1ccc(-c2csc(Nc3cccc(-c4csc(C)n4)c3)n2)cc1 | 2.81 µM | > 33.8 µM |
| O=C(O)c1ccccc1NCn1c(=S)sc2ccccc21 | – | > 100 µM |
| CCCCCCCCCCCCCCCC[n+]1ccccc1 | 1.05 µM and 0.482 µM | 2.35 µM and 1.9 µM |
| CCOC1Oc2ccc(C)cc2C(=O)/C1=C\Nc1ccc(S(N)(=O)=O)cc1 (stereo not drawn) | 11 µM | 35.1 µM |
| Cc1cc(NN=C(c2ccc(O)cc2)c2ccc(O)cc2)c([N+](=O)[O-])cc1[N+](=O)[O-] | 4.11 µM | 18.2 µM |
| Nc1ccccc1C#Cc1ccccc1C#Cc1cccs1 | 15.1 µM | 29.3 µM |
| O=C(O)CCCCC1CCSS1 (stereo not drawn) | – | > 100 µM |
| O=c1cccc(Cl)[nH]1 | – | > 100 µM |
| COc1ccc(C2=Nn3c(nnc3-n3nc(C)cc3C)SC2)cc1 | 0.0839 µM | > 100 µM |
| COc1ccc(C)cc1NC(=S)C#N | – | > 100 µM |
| COc1cccc(-c2nc3sccn3c2-c2ccnc(NCCCNS(=O)(=O)c3ccccc3)c2)c1 | 3.43 µM | > 100 µM |

Each compound was assayed on UO-31 renal (assay: DTP human tumour cell line panel, 48 h).

| Compound | GI50 | TGI |
| --- | --- | --- |
| CN(C)c1ccc(C(O)C2=CC(=O)c3ccccc3C2=O)cc1 (stereo not drawn) | 6.46 µM | 19.3 µM |
| Clc1ccc(CN2CCCN(Cc3ccc(Cl)cc3)C2c2cc3ccccc3c3ccccc23)cc1 | – | > 100 µM |
| COc1ccc(C2NC(=S)NC3=C2CCOc2c3ccc3ccccc23)cc1 (stereo not drawn) | 98.3 µM | > 100 µM |
| COc1ccc(/C=C/C(=O)c2cc3c(N)c(C(=O)Nc4ccc(OC)cc4)sc3nc2C)cc1 | 0.988 µM | > 50 µM |
| Nn1c(-c2ccc(Cl)cc2)nc2c(-c3ccc(Cl)cc3)nc3ccc(Cl)cc3c2c1=O | 16.9 µM | > 100 µM |
| COc1ccc(-c2csc(Nc3cccc(-c4csc(C)n4)c3)n2)cc1 | 2.54 µM | > 50 µM |
| O=C(O)c1ccccc1NCn1c(=S)sc2ccccc21 | – | > 100 µM |
| CCCCCCCCCCCCCCCC[n+]1ccccc1 | 0.795 µM and 1.16 µM | 2.33 µM and 2.85 µM |
| COc1cc2c3c(n(CCCNCCCNCCCN)c(=O)c2cc1OC)-c1cc2c(cc1C3=O)OCO2 | > 100 µM | > 100 µM |
| CCOC1Oc2ccc(C)cc2C(=O)/C1=C\Nc1ccc(S(N)(=O)=O)cc1 (stereo not drawn) | 13.7 µM | > 50 µM |
| Cc1cc(NN=C(c2ccc(O)cc2)c2ccc(O)cc2)c([N+](=O)[O-])cc1[N+](=O)[O-] | 4.02 µM | 23.7 µM |
| Nc1ccccc1C#Cc1ccccc1C#Cc1cccs1 | 19.1 µM | 47.3 µM |
| O=C(O)CCCCC1CCSS1 (stereo not drawn) | – | > 100 µM |
| O=c1cccc(Cl)[nH]1 | – | > 100 µM |
| COc1ccc(C2=Nn3c(nnc3-n3nc(C)cc3C)SC2)cc1 | 0.212 µM | > 100 µM |
| COc1cccc(-c2nc3sccn3c2-c2ccnc(NCCCNS(=O)(=O)c3ccccc3)c2)c1 | 2.07 µM | > 100 µM |

What follows are compounds tested on SK-MEL-2 melanoma (assay: DTP human tumour cell line panel, 48 h).

| Compound | GI50 [µM] | TGI [µM] |
| --- | --- | --- |
| CN(C)c1ccc(C(O)C2=CC(=O)c3ccccc3C2=O)cc1 (stereo not drawn) | 2.88 | 11.7 |
| Clc1ccc(CN2CCCN(Cc3ccc(Cl)cc3)C2c2cc3ccccc3c3ccccc23)cc1 | – | 44.1 |
| COc1ccc(C2NC(=S)NC3=C2CCOc2c3ccc3ccccc23)cc1 (stereo not drawn) | > 100 | > 100 |
| COc1ccc(/C=C/C(=O)c2cc3c(N)c(C(=O)Nc4ccc(OC)cc4)sc3nc2C)cc1 | 0.359 | > 50 |
| Nn1c(-c2ccc(Cl)cc2)nc2c(-c3ccc(Cl)cc3)nc3ccc(Cl)cc3c2c1=O | 25.2 | > 100 |
| COc1ccc(-c2csc(Nc3cccc(-c4csc(C)n4)c3)n2)cc1 | 4.7 | > 27 |
| O=C(O)c1ccccc1NCn1c(=S)sc2ccccc21 | – | > 100 |
| CCCCCCCCCCCCCCCC[n+]1ccccc1 | 0.468 | 1.76 |
| COc1cc2c3c(n(CCCNCCCNCCCN)c(=O)c2cc1OC)-c1cc2c(cc1C3=O)OCO2 | > 100 | > 100 |
| CCOC1Oc2ccc(C)cc2C(=O)/C1=C\Nc1ccc(S(N)(=O)=O)cc1 (stereo not drawn) | 24.3 | > 50 |
| Nc1ccccc1C#Cc1ccccc1C#Cc1cccs1 | 30.2 | 73.5 |
| O=C(O)CCCCC1CCSS1 (stereo not drawn) | – | > 100 |
| O=c1cccc(Cl)[nH]1 | – | > 100 |
| COc1ccc(C2=Nn3c(nnc3-n3nc(C)cc3C)SC2)cc1 | 0.0599 | > 100 |
| COc1ccc(C)cc1NC(=S)C#N | – | > 100 |
| COc1cccc(-c2nc3sccn3c2-c2ccnc(NCCCNS(=O)(=O)c3ccccc3)c2)c1 | 2.87 | 8.85 |

These compounds were tested on HCC-2998 colon (assay: DTP human tumour cell line panel, 48 h).

| Compound | GI50 | TGI |
| --- | --- | --- |
| CN(C)c1ccc(C(O)C2=CC(=O)c3ccccc3C2=O)cc1 (stereo not drawn) | 17 µM | 38.7 µM |
| COc1ccc(/C=C/C(=O)c2cc3c(N)c(C(=O)Nc4ccc(OC)cc4)sc3nc2C)cc1 | 0.174 µM | – |
| CCCCCCCCCCCCCCCC[n+]1ccccc1 | 0.339 µM and 0.363 µM | 1.43 µM and 1.68 µM |
| Cc1cc(NN=C(c2ccc(O)cc2)c2ccc(O)cc2)c([N+](=O)[O-])cc1[N+](=O)[O-] | 8.24 µM | 28.7 µM |
| O=C(O)CCCCC1CCSS1 (stereo not drawn) | – | > 100 µM |
| COc1ccc(C2=Nn3c(nnc3-n3nc(C)cc3C)SC2)cc1 | 0.254 µM | > 100 µM |
| COc1ccc(C)cc1NC(=S)C#N | – | > 100 µM |
| COc1cccc(-c2nc3sccn3c2-c2ccnc(NCCCNS(=O)(=O)c3ccccc3)c2)c1 | 4.38 µM | > 100 µM |
